The values that follow come from patent US11059824B2, “Substituted purines as TLR7 agonists” (Primmune Therapeutics, Inc., priority 2018, dated 2021).

For assay [1], the system named is interferon-α production in hPBMCs. Briefly: Induction of interferon-α production in hPBMCs. Type of assay: cell-based, human. As to conditions: interferon-α production from hPBMCs; for Weighted MEC: geometric mean of all individual MECs across all donors, 24 hours; for individual MEC values: per donor. The protocol:
Treatment of hPBMCs with a TLR7 agonist typically induces substantial production of interferon-α as well as lesser amounts of a variety of other cytokines and chemokines. A typical experiment uses hPBMCs isolated from a healthy donor and placed in replicate cell culture wells; typically 1.0-7.5×10^6 cells are placed in each well. Test compound is added and the cells cultured for 24 hours at 37° C. in a humidified atmosphere containing 5% CO2 post-addition; untreated controls are included. Secreted interferon-α production is measured using an a multisubtype interferon-α ELISA kit like those from PBL Assay Sciences or specifically as IFNα2a as part of a panel of cytokines and chemokines using luminex methodologies. The minimal effective concentration (MEC) is the minimum concentration in a dose response curve where a significant increase in interferon-α production (generally at least 20 pg/ml) is observed above baseline. MEC values for each compound are determined for at least three donors. The weighted MEC for each compound is the geometric mean of all individual MECs across all donors. Concentrations tested typically consist of a two-fold dilution series starting at 100 μM. In the calculation of weighted MEC, any value >100 μM is arbitrarily set to 200 μM unless all MECs for a compound exceed 100 μM

The next assay has as its target human TLR7 (Homo sapiens (Human), UniProt Q9NYK1). Briefly: TLR7 reporter assay (HEK293-TLR-NF-κB inducible SEAP reporter). In kind it is cell-based. To be noted: HEK293 cells stably expressing human TLR7 with NF-κB-driven SEAP reporter; 15-24 hours. An excerpt: The engagement of TLRs by cognate ligands triggers downstream signaling cascades, leading to the activation of NF-κB and other transcription factors which initiate various immunomodulatory effects. The human embryonic kidney cell line, HEK293, is essentially non-responsive to TLR agonists, but ectopic expression of TLRs in these cells allows cognate agonists to activate endogenous NF-κB. Accordingly, the HEK293-TLR-NF-κB inducible reporter system is used to assay TLR agonists. HEK293 cell lines stably expressing human TLR7 or TLR8 together with an NF-κB-driven-secreted alkaline phosphatase (SEAP) reporter were invented at InvivoGen (San Diego, Calif., USA) and used to assess compounds of the present invention for TLR7 and TLR8 agonist activities. Cells were seeded at 2-5×10^4 cells/well in 96 well plates ([…]) and treated with various concentrations of compound (10 μl) for 15-24 hours. SEAP activity was determined by measuring OD at 650 nm; the media used to culture the cell lines contains the reagents required for SEAP detection. The EC50 values in Table 2 are calculated from fitting the dose response of measured SEAP activity for each compound to the following equation: Y=ymax*c^nh/(EC50^nh+c^nh)+blank where Y is the experimentally measured OD650 at concentration c of test article, blank is the observed OD650 in the absence of TLR7 agonist, ymax is the difference between the measured OD650 in the presence of either 28.5 μM resiquimod or 1.675 μM CL307 and the blank and values of EC50 and nh are determined by nonlinear least squares analysis.
Background: A reporter such as luciferase makes a cellular process visible.

Each structure is given as a SMILES string. Several values for one entry are separate records, joined by “and”; a condition that tells them apart may be missing. Equal values may be shown once. Where a name gives a salt, the structure may show the parent alone. Marks after values point to notes of the source that are not given here.

Chain of human TLR7 (Q9NYK1 27-1049): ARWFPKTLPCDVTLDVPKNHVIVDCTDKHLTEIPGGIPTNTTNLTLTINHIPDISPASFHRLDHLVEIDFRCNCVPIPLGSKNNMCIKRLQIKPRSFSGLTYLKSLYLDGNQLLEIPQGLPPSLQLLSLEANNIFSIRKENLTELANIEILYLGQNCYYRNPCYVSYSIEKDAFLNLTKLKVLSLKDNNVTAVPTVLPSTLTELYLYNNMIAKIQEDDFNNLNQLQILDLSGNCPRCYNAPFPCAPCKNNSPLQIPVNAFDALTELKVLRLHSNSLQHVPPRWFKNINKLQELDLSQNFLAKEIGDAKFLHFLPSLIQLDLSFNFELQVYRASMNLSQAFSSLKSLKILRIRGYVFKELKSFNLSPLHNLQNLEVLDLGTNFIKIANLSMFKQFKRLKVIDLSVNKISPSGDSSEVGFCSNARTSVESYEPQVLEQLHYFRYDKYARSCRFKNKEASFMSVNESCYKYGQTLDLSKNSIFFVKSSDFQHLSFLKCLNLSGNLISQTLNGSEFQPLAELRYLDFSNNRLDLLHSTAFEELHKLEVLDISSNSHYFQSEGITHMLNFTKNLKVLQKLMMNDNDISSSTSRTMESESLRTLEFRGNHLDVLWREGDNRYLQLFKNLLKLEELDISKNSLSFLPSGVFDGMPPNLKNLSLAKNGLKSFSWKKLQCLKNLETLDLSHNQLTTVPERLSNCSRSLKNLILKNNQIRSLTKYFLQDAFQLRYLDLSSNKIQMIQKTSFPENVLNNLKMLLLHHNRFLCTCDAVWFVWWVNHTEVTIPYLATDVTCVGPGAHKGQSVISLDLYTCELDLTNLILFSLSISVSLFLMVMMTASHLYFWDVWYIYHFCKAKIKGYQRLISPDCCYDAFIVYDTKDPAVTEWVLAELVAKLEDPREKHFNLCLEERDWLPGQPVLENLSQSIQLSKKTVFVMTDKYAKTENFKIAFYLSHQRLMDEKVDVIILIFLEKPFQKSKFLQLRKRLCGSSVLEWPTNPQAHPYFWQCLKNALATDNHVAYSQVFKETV

`COC(=O)Cn1c(=O)n([C@@H]2O[C@H](CO)[C@H](O)[C@H]2O)c2nc(N)[nH]c(=O)c21` [Compound 12, Methyl 2-(2-amino-9-((2R,3R,4R,5R)-3,4-dihydroxy-5-(hydroxymethyl)tetrahydrofuran-2-yl)-6,8-dioxo-1,6,8,9-tetrahydro-7H-purin-7-yl)acetate]: the “Weighted MEC” value in assay [1] is listed as >100* μM. The EC50 (usually the concentration at which the effect is half-maximal) on human TLR7 was found to be 407 µM.
For the compound `Nc1nc2c(c(=O)[nH]1)n(Cc1cccc(F)c1)c(=O)n2[C@@H]1O[C@H](CO)C[C@H]1O` [Compound 34, 2-Amino-7-(3-fluorobenzyl)-9-((2R,3R,5S)-3-hydroxy-5-(hydroxymethyl)tetrahydrofuran-2-yl)-7,9-dihydro-1H-purine-6,8-dione], in assay [1], the “Weighted MEC” value was “less than or equal to 40 μM and 40 μM”; the “individual MEC values” was less than 100 µM. On human TLR7, this compound gave an EC50 of 512 µM.
Take `Nc1nc2c(c(=O)[nH]1)n(CCCC(=O)O)c(=O)n2[C@@H]1O[C@H](CO)[C@H](O)[C@H]1O` [Compound 20, 4-(2-Amino-9-((2R,3R,4R,5R)-3,4-dihydroxy-5-(hydroxymethyl)tetrahydrofuran-2-yl)-6,8-dioxo-1,6,8,9-tetrahydro-7H-purin-7-yl)butanoic Acid]: the “Weighted MEC” value in assay [1] is on record as >100* μM. This compound also returned an EC50 on human TLR7 of 79 µM.
`COCCn1c(=O)n([C@@H]2O[C@H](CO)[C@H](O)[C@H]2O)c2nc(N)[nH]c(=O)c21` [Compound 22, 2-Amino-9-((2R,3R,4R,5R)-3,4-dihydroxy-5-(hydroxymethyl)tetrahydrofuran-2-yl)-7-(2-methoxyethyl)-7,9-dihydro-1H-purine-6,8-dione]: the “Weighted MEC” value in assay [1] is >100* μM. At human TLR7, this compound showed an EC50 of 567 µM.
The compound `Cn1c(=O)n([C@@H]2O[C@H](CO)[C@H](O)[C@H]2O)c2nc(N)[nH]c(=O)c21` [Compound 15, 2-Amino-9-((2R,3R,4R,5R)-3,4-dihydroxy-5-(hydroxymethyl)tetrahydrofuran-2-yl)-7-methyl-7,9-dihydro-1H-purine-6,8-dione] registered an EC50 at human TLR7 of more than 500 µM.
Consider `Nc1nc2c(c(=O)[nH]1)n(C/C=C/C(=O)O)c(=O)n2[C@@H]1O[C@H](CO)[C@H](O)[C@H]1O` [Compound 9, (E)-4-(2-Amino-9-((2R,3R,4R,5R)-3,4-dihydroxy-5-(hydroxymethyl)tetrahydrofuran-2-yl)-6,8-dioxo-1,6,8,9-tetrahydro-7H-purin-7-yl)but-2-enoic Acid], for which, in assay [1], the “Weighted MEC” value is >100* μM. This compound also yielded an EC50 on human TLR7 of 15 µM.
With `Nc1nc2c(c(=O)[nH]1)n(CC(F)F)c(=O)n2[C@@H]1O[C@H](CO)[C@H](O)[C@H]1O` [Compound 14, 2-Amino-7-(2,2-difluoroethyl)-9-((2R,3R,4R,5R)-3,4-dihydroxy-5-(hydroxymethyl)tetrahydrofuran-2-yl)-7,9-dihydro-1H-purine-6,8-dione], the “Weighted MEC” value in assay [1] is on record as 100* μM. Further, on human TLR7, the EC50 turned out to be 180 µM.
On to `C#CCn1c(=O)n([C@@H]2O[C@H](CO)[C@H](F)[C@H]2O)c2nc(N)[nH]c(=O)c21` [Compound 28, 2-Amino-9-((2R,3S,4R,5R)-4-fluoro-3-hydroxy-5-(hydroxymethyl)tetrahydrofuran-2-yl)-7-(prop-2-yn-1-yl)-7,9-dihydro-1H-purine-6,8-dione], for which, in assay [1], the “Weighted MEC” value was “less than or equal to 40 μM and 33 μM”; the “individual MEC values” was less than 100 µM. The compound further yielded an EC50 at human TLR7 of 470 µM.
`NCCn1c(=O)n([C@@H]2O[C@H](CO)[C@H](O)[C@H]2O)c2nc(N)[nH]c(=O)c21` [Compound 23, 2-Amino-7-(2-aminoethyl)-9-((2R,3R,4R,5R)-3,4-dihydroxy-5-(hydroxymethyl)tetrahydrofuran-2-yl)-7,9-dihydro-1H-purine-6,8-dione hydrochloride]: on human TLR7, the EC50 is more than 500 µM.
